Tests used:
Assay type in all cases: in vivo
[1] = test system: Echinochloa oryzicola Vasing. (Eo); assay: Test for herbicidal effect by paddy field soil treatment (Test Example 1); details: application amount (active ingredient) 100 g/10 a, examined at the 21st day from the treatment, index per Table 40
Procedure, shortened: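 Eo seeds sown in puddled paddy soil under 3 cm water; next day a water-diluted wettable powder was dropped onto the water surface at 100 g active ingredient per 10 ares. Herbicidal effect scored on a standard scale 21 days after treatment, greenhouse-grown.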

[2] = test system: Echinochloa crus-galli (L.) Beauv. var. crusgall (Ec); assay: Test for herbicidal effect by upland field soil treatment (Test Example 2), Ec
Procedure, shortened: (§1)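 Echinochloa crus-galli and Setaria viridis were sown in upland field soil and covered, then the soil surface was sprayed with water-diluted wettable powder at 100 g active ingredient per 10 ares (100 liters per 10 ares). Plants were grown in a greenhouse and scored on a standard scale on day 21.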

[3] = test system: Setaria viridis (L.) Beauv. (Se); assay: Test for herbicidal effect by upland field soil treatment (Test Example 2), Se
Procedure, shortened: as §1

[4] = test system: Echinochloa crus-galli (L.) Beauv. var. crusgalli (Ec); assay: Test for herbicidal effect by upland foliage treatment (Test Example 3); details: 100 g/10 a active ingredient, examined at 14th day
Procedure, shortened: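 Potted upland-soil Ec seedlings grown 2 weeks in greenhouse, then foliage-sprayed with water-diluted wettable powder at 100 L per 10 ares, giving 100 g active ingredient per 10 ares. Herbicidal effect scored on a graded standard 14 days after treatment.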

rice (Or) = assay: Test for crop selectivity by paddy field soil treatment (Test Example 4), phytotoxicity to rice; details: transplanted two-leaf stage rice, 100 g/10 a active ingredient, 21st day
Procedure, shortened: (§2)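 Puddled paddy soil sown with Eo seeds, two-leaf rice transplanted at 2 cm depth, flooded 3 cm. Next day, wettable powder diluted in water was dropped on the water surface at 100 g a.i. per 10 ares. Herbicidal effect and rice phytotoxicity scored visually 21 days after treatment, greenhouse.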

[5] = test system: Echinochloa oryzicola Vasing. (Eo); assay: Test for crop selectivity by paddy field soil treatment (Test Example 4), herbicidal effect on Eo; details: 100 g/10 a active ingredient, 21st day
Procedure, shortened: as §2

[6] = 100 g/10 a active ingredient, examined at 21st day
[7] = application amount (active ingredient) 100 g/10 a, examined at the 21st day from the treatment, index per Table 40

Compound | Herbicidal effect to Eo [1] | Herbicidal effect to Ec [2, 6] | Herbicidal effect to Se [3, 6] | Herbicidal effect to Ec [4] | Phytotoxicity to Or (rice (Or)) | Herbicidal effect to Eo [5] | Herbicidal effect to Ec [2, 7] | Herbicidal effect to Se [3, 7]
CC12CCCCCC1C(S(=O)(=O)Cc1c(F)cccc1F)=NO2 (stereo not drawn) [Compound 1-556] | 5 (A herbicidal effect or phytotoxicity of 90% or more) | 5 (A herbicidal effect or phytotoxicity of 90% or more) | 4 (A herbicidal effect or phytotoxicity of 70% to less than 90%) | 4 (A herbicidal effect or phytotoxicity of 70% to less than 90%) | 0 (A herbicidal effect or phytotoxicity of 0% to less than 10%) | 5 (A herbicidal effect or phytotoxicity of 90% or more) | – | –
C=CCOC(=O)c1ccccc1CS(=O)(=O)C1=NOC(C)(C)C1 [Compound 1-599] | 5 (A herbicidal effect or phytotoxicity of 90% or more) | 5 (A herbicidal effect or phytotoxicity of 90% or more) | 5 (A herbicidal effect or phytotoxicity of 90% or more) | 4 (A herbicidal effect or phytotoxicity of 70% to less than 90%) | 1 (A herbicidal effect or phytotoxicity of 10% to less than 30%) | 5 (A herbicidal effect or phytotoxicity of 90% or more) | – | –
CCC1(C)CC(S(=O)(=O)Cc2ccc(C)cc2)=NO1 (stereo not drawn) [Compound 1-203] | 5 (A herbicidal effect or phytotoxicity of 90% or more) | – | – | 4 (A herbicidal effect or phytotoxicity of 70% to less than 90%) | 1 (A herbicidal effect or phytotoxicity of 10% to less than 30%) | 5 (A herbicidal effect or phytotoxicity of 90% or more) | 5 (A herbicidal effect or phytotoxicity of 90% or more) | 4 (A herbicidal effect or phytotoxicity of 70% to less than 90%)
COC(=O)c1cccc(CS(=O)(=O)C2=NOC(C)(C)C2)c1[N+](=O)[O-] [Compound 1-503] | 5 (A herbicidal effect or phytotoxicity of 90% or more) | 5 (A herbicidal effect or phytotoxicity of 90% or more) | 5 (A herbicidal effect or phytotoxicity of 90% or more) | 4 (A herbicidal effect or phytotoxicity of 70% to less than 90%) | 0 (A herbicidal effect or phytotoxicity of 0% to less than 10%) | 5 (A herbicidal effect or phytotoxicity of 90% or more) | – | –
CCC(C)OC(=O)c1ccccc1CS(=O)(=O)C1=NOC(C)(C)C1 (stereo not drawn) [Compound 1-597] | 5 (A herbicidal effect or phytotoxicity of 90% or more) | 5 (A herbicidal effect or phytotoxicity of 90% or more) | 4 (A herbicidal effect or phytotoxicity of 70% to less than 90%) | – | 1 (A herbicidal effect or phytotoxicity of 10% to less than 30%) | 5 (A herbicidal effect or phytotoxicity of 90% or more) | – | –
COC(=O)c1ccccc1CS(=O)(=O)C1=NOC(C)(C)C1 [Compound 1-145] | 5 (A herbicidal effect or phytotoxicity of 90% or more) | – | – | 4 (A herbicidal effect or phytotoxicity of 70% to less than 90%) | 0 (A herbicidal effect or phytotoxicity of 0% to less than 10%) | 5 (A herbicidal effect or phytotoxicity of 90% or more) | 5 (A herbicidal effect or phytotoxicity of 90% or more) | 5 (A herbicidal effect or phytotoxicity of 90% or more)
CCCCOc1cccc(Cl)c1CS(=O)(=O)C1=NOC(C)(C)C1 [Compound 1-574] | 5 (A herbicidal effect or phytotoxicity of 90% or more) | 5 (A herbicidal effect or phytotoxicity of 90% or more) | 5 (A herbicidal effect or phytotoxicity of 90% or more) | 4 (A herbicidal effect or phytotoxicity of 70% to less than 90%) | 1 (A herbicidal effect or phytotoxicity of 10% to less than 30%) | 5 (A herbicidal effect or phytotoxicity of 90% or more) | – | –
CCCCOc1cccc(C)c1CS(=O)(=O)C1=NOC(C)(C)C1 [Compound 1-605] | 5 (A herbicidal effect or phytotoxicity of 90% or more) | 5 (A herbicidal effect or phytotoxicity of 90% or more) | 4 (A herbicidal effect or phytotoxicity of 70% to less than 90%) | – | 1 (A herbicidal effect or phytotoxicity of 10% to less than 30%) | 5 (A herbicidal effect or phytotoxicity of 90% or more) | – | –
COc1ccc(C(C)C)c(C)c1CS(=O)(=O)C1=NOC(C)(C)C1 [Compound 1-584] | 5 (A herbicidal effect or phytotoxicity of 90% or more) | – | – | 5 (A herbicidal effect or phytotoxicity of 90% or more) | 1 (A herbicidal effect or phytotoxicity of 10% to less than 30%) | 5 (A herbicidal effect or phytotoxicity of 90% or more) | – | –
O=S(=O)(Cc1c(F)cccc1F)C1=NOC(C2CC2)(C2CC2)C1 [Compound 1-520] | 5 (A herbicidal effect or phytotoxicity of 90% or more) | 5 (A herbicidal effect or phytotoxicity of 90% or more) | 5 (A herbicidal effect or phytotoxicity of 90% or more) | 4 (A herbicidal effect or phytotoxicity of 70% to less than 90%) | 1 (A herbicidal effect or phytotoxicity of 10% to less than 30%) | 5 (A herbicidal effect or phytotoxicity of 90% or more) | – | –
CCC1(C)CC(S(=O)(=O)Cc2cccc(OC)c2)=NO1 (stereo not drawn) [Compound 1-229] | 5 (A herbicidal effect or phytotoxicity of 90% or more) | – | – | 4 (A herbicidal effect or phytotoxicity of 70% to less than 90%) | 1 (A herbicidal effect or phytotoxicity of 10% to less than 30%) | 5 (A herbicidal effect or phytotoxicity of 90% or more) | 5 (A herbicidal effect or phytotoxicity of 90% or more) | 5 (A herbicidal effect or phytotoxicity of 90% or more)
CCC1(C)CC(SCc2c(F)cccc2F)=NO1 (stereo not drawn) [Compound 1-198] | 5 (A herbicidal effect or phytotoxicity of 90% or more) | – | – | – | 1 (A herbicidal effect or phytotoxicity of 10% to less than 30%) | 5 (A herbicidal effect or phytotoxicity of 90% or more) | 4 (A herbicidal effect or phytotoxicity of 70% to less than 90%) | 5 (A herbicidal effect or phytotoxicity of 90% or more)
CCC1(C)CC(S(=O)(=O)Cc2cccc([N+](=O)[O-])c2)=NO1 (stereo not drawn) [Compound 1-331] | 5 (A herbicidal effect or phytotoxicity of 90% or more) | – | – | – | 0 (A herbicidal effect or phytotoxicity of 0% to less than 10%) | 5 (A herbicidal effect or phytotoxicity of 90% or more) | 5 (A herbicidal effect or phytotoxicity of 90% or more) | 5 (A herbicidal effect or phytotoxicity of 90% or more)
